Data reported in patent US20230181485A1, “Uses and Formulations of Cannabinoids” (priority 2020, published 2023).
Read-outs that look alike come from different tables or passages of the source.

What was measured:
[1] = system: SARS-CoV-2 virus (isolate BetaCoV/Germany/BavPat1/2020 p. 1); test: antiviral assay, Vero E6 cells with SARS-CoV-2, focus forming units; type: cell-based; settings: 24 h
[2] = system: activated memory T cell line; settings: 1-5 μmol/l, cited from earlier work
[3] = mice; 120 mg/kg single dose; cited from earlier work
[4] = system: ischemia-reperfusion-induced kidney injury; settings: 10 mg/kg after induced kidney injury; cited from earlier work
[5] = healthy rats, cited from earlier work
[6] = system: CD83 dendritic cell activation marker; settings: dendritic cells from individuals with HIV infection; cited from earlier work
[7] = system: LPS-induced acute lung injury; settings: 20 mg/kg, 6 h after LPS; cited from earlier work
[8] = cited from earlier work
IL-6 secretion = settings: majority of cellular models; cited from earlier work
[9] = system: chemically induced acute hepatitis; settings: 25 mg/kg; cited from earlier work
human neutrophils = settings: cited from earlier work
[10] = systemic exposure after i.p. and oral application in mice and rats (Deiana et al.); type: in vivo; settings: 20 mg/kg, assuming dose-proportional plasma concentrations
Procedure: A comparative investigation for systemic exposure after i.p. and oral application of CBD in mice and rats has shown that 120 mg/kg as a single dose leads to a maximum plasma concentration of 14,000 ng/ml in mice (S. Deiana et al. (2012). Plasma and brain pharmacokinetic profile of cannabidiol (CBD), cannabidivarine (CBDV), Delta(9)-tetrahydrocannabivarin (THCV) and cannabigerol (CBG) in rats and mice following oral and intraperitoneal administration and CBD action on obsessive-compulsive behaviour. Psychopharmacology (Berl) 219(3): 859-73).

human mononuclear cells = settings: nanomolar or micromolar concentrations; cited from earlier work
microglial cells = settings: 1-16 μmol/l; cited from earlier work
[11] = system: LPS-induced acute lung injury; settings: cited from earlier work
IL-6 receptor = biological target: T1, IL-6 receptor (Homo sapiens, UniProt P08887); settings: preliminary clinical data; cited from earlier work
T1 construct: host or cells: patients (in vivo)
T1 sequence (P08887 20-468): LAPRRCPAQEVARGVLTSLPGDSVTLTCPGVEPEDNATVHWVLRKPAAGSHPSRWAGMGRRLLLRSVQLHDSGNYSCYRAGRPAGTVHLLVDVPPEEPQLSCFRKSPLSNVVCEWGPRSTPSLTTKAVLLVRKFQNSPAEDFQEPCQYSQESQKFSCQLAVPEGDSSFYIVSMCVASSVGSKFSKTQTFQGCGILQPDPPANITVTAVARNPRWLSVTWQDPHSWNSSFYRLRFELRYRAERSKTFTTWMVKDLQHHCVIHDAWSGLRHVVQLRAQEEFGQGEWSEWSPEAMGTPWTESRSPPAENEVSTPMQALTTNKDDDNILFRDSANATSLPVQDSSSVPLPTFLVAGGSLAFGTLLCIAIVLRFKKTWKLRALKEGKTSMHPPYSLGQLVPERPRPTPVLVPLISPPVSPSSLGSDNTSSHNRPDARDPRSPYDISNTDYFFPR

Molecule: C=C(C)[C@@H]1CCC(C)=C[C@H]1c1c(O)cc(CCCCC)cc1O [CBD, 2-[(1R,6R)-3-methyl-6-(1-methylethenyl)-2-cyclohexen-1-yl]-5-pentyl-1,3-benzenediol]
- FFU values (viral activity of SARS-CoV-2 in vitro) ([1]; 0.25-5 μM): reduce the FFU values in a dose dependent manner
- IC50 ([1]; Severe acute respiratory syndrome coronavirus 2, Vero C1008, Vero E6 cells, 5 μM values excluded, read-out: IC50 of inhibition of viral activity): 789 nM
- autoantigen-specific Th17 cell phenotype (IL-17) ([2]; dose-dependently): reduced
- IL-6 production and secretion [2]: decreased
- production of IL-10 [2]: increased
- maximum plasma concentration [3]: 14,000 ng/ml
- effect on induced kidney injury (Treg17/Th17 levels) [4]: renoprotective
- numbers of NK cells and NKT cells ([5]; 2.5 mg/kg per day): increased
- numbers of NK cells and NKT cells ([5]; 5 mg/kg per day): not affected
- number of T cells including T helper cells and cytotoxic T cells and of B cells ([5]; daily 5 mg/kg): significantly reduced
- CD83 dendritic cell activation marker [6]: suppresses
- mechanical lung function, leukocyte migration, myeloperoxidase activity, vascular permeability, cytokines/chemokines [7]: improved mechanical lung function
- log P [8]: about 6.1
- effective concentration for suppressive effect on IL-6 secretion (IL-6 secretion): ~5 µM
- expression of MDSCs [9]: induces
- pro-inflammatory cytokines such as IL-2, TNF-α, and IL-6 [9]: reduction
- migration of human neutrophils (human neutrophils): inhibits
- target peak exposure [10]: 2,300 ng/ml
- release of pro-inflammatory cytokines (human mononuclear cells): suppressed
- apoptosis in microglial cells (microglial cells): induces apoptosis
- number of leukocytes including macrophages and neutrophils in bronchoalveolar lavage fluid ([11]; 20 mg/kg, mice after LPS-induced lung inflammation): decreases
- total leukocytes migration, myeloperoxidase activity, pro-inflammatory cytokine production including TNF-α and IL-6 and vascular permeability ([11]; 0.3-80 mg/kg intraperitoneal, 60 minutes before LPS instillation): significantly decreased
- dose at which effects reached a nearly maximum extent ([11]; prophylactic application, intraperitoneal): 20 mg/kg

Molecule: tocilizumab: humanized monoclonal antibody against the IL-6 receptor
- clinical effect in patients with severe SARS-CoV-2 pneumonia (IL-6 receptor): beneficial effects
